Results reported in US5004749A, “Concentrated aqueous solution of glutaraldehyde and 1,2-benzisothiazolin-3-one” (priority 1989, dated 1991).
Converted amounts (≈) assume the structure as drawn.

Assays:
[1] = format: physicochemical
Protocol: In order to compare the composition of the present invention with that disclosed in U.S. Pat. No. 4,539,071 (Clifford et al) a stable aqueous composition of isothiazolone, the following experiment was performed. To deionized water were added 0.2 percent cupric nitrate, 9 percent magnesium chloride and 15 percent magnesium nitrate, all in percent by weight.

[2] = system: Acinetobacter calcoaceticus, Pseudomonas aeruginosa, Enterobacter cloacae and Escherichia coli; assay: MIC in calcium carbonate slurry, inoculated weekly, reduction to less than ten colony forming units/ml (Example 3); format: cell-based; settings: for MIC: Calcium Carbonate Slurry
Protocol: Several forty gram samples of a calcium carbonate slurry (Gamma-Fil 90, available from the Georgia Marble Company) which were free of microbial growth, were prepared. These samples were divided into four groups. The first group was dosed with varying amounts of glutaraldehyde (in the form of a 50 percent aqueous solution); the second group was dosed with varying amounts of 1,2-benzisothiazolin-3-one the third group was dosed with varying amounts of glutaraldehyde (in the form of a 50 percent aqueous solution) and of 1,2-benzisothiazolin-3-one (in the form of Proxel® Press Paste) in a 14:1 ratio by weight of glutaraldehyde:BIT a fourth group was left untreated as a control. These samples were each inoculated three times on a weekly basis with an inoculum which contained the following microorganisms: Acinetobacter calcoaceticus, Pseudomonas aeruginosa, Enterobacter cloacae and Escherichia coli. The minimum inhibitory concentration (MIC) values were determined for preservative levels effective in reducing the contaminating microorganisms to less than ten colony forming units/ml for the first three groups. The number of colony forming units/ml in the control group was also determined.
(§1) The results for Examples 3 and 4 were quantified with respect to the synergy shown through the application of an equation described in Berenbaum, M.C. "A method for Testing for Synergy with Any Number of Agents" The Journal of Infectious Diseases, Vol 137, No. 2 pp 122-130 (February, 1978). The relevant equation is as follows: [formula]
(§2) If Z is less than 1, synergy is present. If Z equals 1, additive interaction is present. If Z is greater than 1, an antagonistic interaction is present.

physchem = format: physicochemical
Protocol: A pH 3.2 solution was attained by adding 12.5 ml of 0.2 M acetic acid to 100 ml of deionized water. The pH 4.8 solution was prepared by adding 22.5 ml of 0.2 M acetic acid plus 27.5 ml of 0.2 M sodium acetate brought to a total volume of 100 ml with deionized water. Finally the pH of 6.8 solution was created by adding 4.1 ml of 0.2 M sodium acetate plus 1 drop of 0.2 M acetic acid to 100 ml of deionized water. […] Employing the same buffering agents, solutions with 50% aqueous glutaraldehyde were prepared having pH's of 3.2, 4.8 and 6.8 respectively. A twenty ml solution having a pH of 3.2 was attained with 1.45 ml of acetic acid; the twenty ml solution having a pH of 4.8 contained acetic acid and sodium acetate in a 3:1 weight ratio and the twenty ml solution having a pH of 6.8 contained 1.25 g of sodium acetate. The solubility of BIT in each solution was determined as described above.

microbial contamination = assay: MIC in kaolin slurry with significant microbial spoilage, reduction to less than ten colony forming units/ml (Example 4); format: cell-based
Protocol: A sample of kaolin slurry with significant microbial spoilage was dosed with a range of concentrations of 1,2-benzisothiazolin-3-one, glutaraldehyde, and 1,2-benzisothiazolin-3-one plus glutaraldehyde (1:14 weight ratio). A sample was included, antimicrobial free, for control purposes with determinations of the colony forming units/ml. MIC values (in parts per million of Active Ingredient) to reduce microbial contamination to less than ten colony forming units/ml were determined by the absence of detectable growth by dilution plate counts.
as §1, §2

solubility of 1,2-benzisothiazolin-3-one [1]	MIC ([2]; Week 1) [µg/mL]	MIC ([2]; Week 2) [µg/mL]	MIC ([2]; Week 3) [µg/mL]	solubility of 1,2-benzisothiazolin-3-one is increased by the addition of glutaraldehyde (physchem)	solubility (physchem; buffered 50% aqueous glutaraldehyde, pH 3.2) [mg/mL]	solubility (physchem; buffered 50% aqueous glutaraldehyde, pH 4.8) [mg/mL]	solubility (physchem; buffered 50% aqueous glutaraldehyde, pH 6.8) [mg/mL]	solubility (physchem; buffered deionized water, pH 3.2) [mg/mL]	solubility (physchem; buffered deionized water, pH 4.8) [mg/mL]	solubility (physchem; buffered deionized water, pH 6.8) [mg/mL]	MIC (microbial contamination; 24 h, 1 day) [µg/mL]	MIC (microbial contamination; 48 h, 2 days) [µg/mL]	MIC (microbial contamination; 72 h, 3 days) [µg/mL]	MIC (microbial contamination; 168 h, 7 days) [µg/mL]	Structure (SMILES)	antimicrobial activity/potency on repeated challenge (in words) ([2]; calcium carbonate slurry, second and third challenges with microbial insults)
essentially nil	285	> 570	380	increased considerably	31.8 (≈ 210 mM)	33.8 (≈ 224 mM)	30.4 (≈ 201 mM)	3.2 (≈ 21.2 mM)	1.1 (≈ 7.28 mM)	0.4 (≈ 2.65 mM)	178	> 178	> 178	133	O=c1[nH]sc2ccccc12 [BIT, 1,2-benzisothiazolin-3-one]	
	250	500	500								250	150	200	250	O=CCCCC=O [Glutaraldehyde, glutaraldehyde]	undergoes a reduction in antimicrobial activity
